From patent US10302663B2, “Method of assessing pancreatic beta-cell function” (METABOLON, INC., priority 2011, dated 2019)

Experiments:
[1] = Beta-cell biomarker levels in fasted plasma in response to pioglitazone therapy in IGT subjects; format: in vivo, human; conditions: pioglitazone 45 mg/day, 2.4 years, baseline vs study end
Protocol: In another study, the relationship between changes in the IS/IR Disposition index and changes in the levels of the beta-cell function biomarkers, AHB and LGPC following drug treatment were determined. The study cohort consisted of 431 IGT subjects (FPG=105, 2-h PG [OGTT]=168, HbA1C=5.5%) who were randomized to pioglitazone (45 mg/day) or placebo and followed for 2.4 years. Fasted plasma samples were analyzed at baseline and study end for AHB, LGPC, insulin, HbA1c and Matsuda index.
A method for measuring each of the biomarkers listed in Table 4 in EDTA human plasma was developed. Human plasma samples were spiked with internal standards and subjected to protein precipitation as described below. Following centrifugation, the supernatant was removed and injected onto a Waters Acquity/Thermo Quantum Ultra LC-MS-MS system using four different chromatographic systems (column/mobile phase combinations).

[2] = system: INS-1e cells; experiment: Glucose-stimulated insulin release in INS-1e cells; format: cell-based, rat; conditions: INS-1e cells incubated 48 h with physiological concentrations of metabolite, then 3.3, 11, 20 mM glucose or 20 mM glucose+10 mM arginine, FIG. 2
Protocol: Clonal INS-1e cells, derived and selected from a parental rat insulinoma INS-1 cell line (University of Geneva, Geneva, Switzerland), were grown in monolayer culture in RPMI 1640 medium containing 11.1 mM glucose. The culture medium was supplemented with 10% heat-inactivated fetal calf serum, 1 mM sodium pyruvate, 10 mM HEPES, 2 mM glutamine, 50 μmol/liter β-mercaptoethanol, 100 U/ml penicillin, and 100 μg/ml streptomycin. Cells were cultured at 37 C in a humidified 95% air-5% CO2 atmosphere. Cells were seeded onto wells at a density of 1.5×10^5 cells/well at least 96 h before using them in the insulin secretion experiments. Tissue culture reagents were obtained from Life Technologies, Inc. Invitrogen (Basel, Switzerland).
The insulin secretory response to glucose was tested in INS-1e cells. When cells had reached approximately 80% confluence, cells were incubated for 48 h in fresh RPMI 1640 medium containing 11.1 mM glucose, in the presence or absence of different physiological concentrations of metabolites alpha-hydroxybutyrate (2-HB) (Sigma-Aldrich) and linoleoyl-glycerophosphocholine (L-GPC) (Avanti Polar Lipids). Next, cells were maintained for 1 h in glucose-free Krebs-Ringer bicarbonate HEPES buffer containing 135 mm NaCl, 3.6 mm KCl, 5 mm NaHCO3, 0.5 mm Na H2PO4, 0.5 mm MgCl2, 1.5 mm CaCl2, 10 mm HEPES, and BSA 0.1% (glucose-free; pH 7.4; starvation period) and then washed with glucose-free Krebs-Ringer bicarbonate-HEPES buffer and subsequently incubated for […] with Krebs-Ringer bicarbonate-HEPES buffer containing 3.3, 11, 20 mM glucose, or 20 mM glucose+10 mM arginine. At the end of incubation, supernatants were collected to measure insulin concentration (Linco Research, St. Charles, Mo.). Cellular insulin contents were determined in acid-ethanol extracts. The insulin secretory response to glucose was expressed as the ratio of insulin concentration in the supernatant to the cellular insulin content.

CCc1ccc(CCOc2ccc(CC3SC(=O)NC3=O)cc2)nc1 (stereo not drawn) [PIO, pioglitazone]
Fold change of Linoleoyl-GPC Before and after PIO ([1]; p<0.005): 1.21 ↑ | Fold change of α-HB Before and after PIO ([1]; p=0.001): 0.90 ↓

CCCCC/C=C\C/C=C\CCCCCCCC(=O)OC[C@@H](O)COP(=O)([O-])OCC[N+](C)(C)C [LGPC, linoleoyl lysophosphatidylcholine]
effect on glucose-stimulated insulin release (ratio of insulin in supernatant to cellular insulin content) [2]: stimulated the glucose stimulated release of insulin | effect on glucose-stimulated insulin release (ratio of insulin in supernatant to cellular insulin content) ([2]; listed as Linoleoyl-GPC): stimulatory effect

CC[C@H](O)C(=O)O [AHB, 2-hydroxybutyrate]
effect on glucose-stimulated insulin release (ratio of insulin in supernatant to cellular insulin content) [2]: inhibited the glucose stimulated release of insulin | effect on glucose-stimulated insulin release (ratio of insulin in supernatant to cellular insulin content) ([2]; listed as 2-hydroxybutyrate): inhibitory effect
